Experimental data as given in patent publication US10598653B2, “Methods of blocking cancer stem cell growth” (Bionomics Inc., priority 2011, dated 2020).

B1: R-spondin 1: R-spondin family Wnt-pathway modulator protein, purchased from R& D systems (protein, UniProt Q2MKA7 21-263, looked up)
R-spondin-1: SRGIKGKRQRRISAEGSQACAKGCELCSEVNGCLKCSPKLFILLERNDIRQVGVCLPSCPPGYFDARNPDMNKCIKCKIEHCEACFSHNFCTKCKEGLYLHKGRCYPACPEGSSAANGTMECSSPAQCEMSEWSPWGPCSKKQQLCGFRRGSEERTRRVLHAPVGDHAACSDTKETRRCTVRRVPCPEGQKRRKGGQGRRENANRNLARKESKEAGAGSRRRKGQQQQQQQGTVGPLTSAGPA

Tests used:
[1] = test system: colon tumor cells re-implanted in secondary recipients; assay: Secondary transplant tumor formation after GPR49 mAb+irinotecan; assay type: in vivo, mice; conditions: 140 day follow-up
Text: Isolated tumor cells from control or GPR49 mAb+irinotecan treated tumors from the in vivo study outlined in Example 3 were harvested, pooled, dissociated and re-implanted in a limiting dilution secondary transplant assay to measure cancer stem cell frequency. For each treatment group, 8 mice were implanted with 10, 30, 100 cells. […]

[2] = test system: CT1 primary colon tumor xenograft; assay: CT1 primary colon tumor xenograft, combination with Irinotecan; assay type: in vivo, SCID beige female mice; conditions: 10 mg/kg IP once per day for the first 5 days
Method: Single agent in vivo efficacy of murine antibodies 14F7.1, 18G7.1, 5B10.1, 14A8.1, 1B3.5 was evaluated in a primary colon tumor xenograft model system using CT1 primary xenograft cells. CT1 is a primary colorectal (CRC) in vivo xenograft tumor established from a fresh CRC patient tumor sample. The mutational status was determined by Ion Torrent deep sequencing to identify oncogene mutations. Approximately 5-15% of CT1 tumors express GPR49. SCID beige female mice were inoculated with CT1 tumor cells and monitored for tumor growth. Mice were randomized at day 0 into groups of 10 when mean tumor volume reached 175 mm^3. Chemotherapeutic Irinotecan was administered IP at 10 mg/kg once per day for the first 5 days. The antibodies were administered intraperitoneally (i.p.) at 15 mg/kg administered twice weekly for 4 weeks. Tumors were measured at the indicated intervals post-inoculation for total tumor volume.

GPR49-Fc = biological target: T1, GPR49-Fc (Homo sapiens, UniProt O75473); assay: Solution affinity surface plasmon resonance of RSPO-1 on GPR49-Fc; conditions: initial binding rates, GPR49-Fc competition
T1 construct: FLAG (C)
T1 sequence (O75473 with tags, fused parts or gaps): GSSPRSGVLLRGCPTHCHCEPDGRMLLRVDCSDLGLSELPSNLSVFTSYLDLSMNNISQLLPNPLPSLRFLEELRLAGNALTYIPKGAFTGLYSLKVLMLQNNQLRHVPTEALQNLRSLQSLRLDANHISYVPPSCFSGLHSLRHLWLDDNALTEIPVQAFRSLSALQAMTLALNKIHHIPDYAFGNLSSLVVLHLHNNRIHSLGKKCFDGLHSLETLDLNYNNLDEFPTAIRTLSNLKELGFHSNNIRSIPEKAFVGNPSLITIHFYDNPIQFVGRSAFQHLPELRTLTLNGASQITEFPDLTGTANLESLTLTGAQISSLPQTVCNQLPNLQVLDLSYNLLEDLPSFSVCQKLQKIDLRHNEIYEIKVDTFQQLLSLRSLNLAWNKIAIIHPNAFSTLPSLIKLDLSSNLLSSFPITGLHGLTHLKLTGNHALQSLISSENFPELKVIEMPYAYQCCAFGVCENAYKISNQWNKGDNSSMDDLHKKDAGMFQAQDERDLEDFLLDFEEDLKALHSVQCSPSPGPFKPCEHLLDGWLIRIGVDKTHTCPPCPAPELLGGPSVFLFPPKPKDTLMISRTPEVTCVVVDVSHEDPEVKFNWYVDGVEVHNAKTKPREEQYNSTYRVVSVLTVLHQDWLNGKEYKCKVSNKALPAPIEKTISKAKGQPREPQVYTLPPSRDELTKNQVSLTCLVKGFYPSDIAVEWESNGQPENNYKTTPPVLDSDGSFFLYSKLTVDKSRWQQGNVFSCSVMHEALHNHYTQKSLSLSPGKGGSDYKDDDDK
Method: Methods: Binding of RSPO to GPR49 was analyzed using solution affinity surface plasmon resonance (Day E S, et al. Biochemistry. 2005 Feb. 15; 44(6):1919-31). The method utilizes conditions of so-called “mass-transport-limited” binding, in which the initial rate of ligand binding (protein binding to the sensor chip) is proportional to the concentration of ligand in solution (BIApplications Handbook (1994) Chapter 6: Concentration measurement, pp 6-1-6-10, Pharmacia Biosensor AB). Under these conditions, binding of the soluble analyte (protein flowing over chip surface) to the immobilized protein on the chip is fast compared to the diffusion of the analyte into the dextran matrix on the chip surface. Therefore, the diffusion properties of the analyte and the concentration of analyte in solution flowing over the chip surface determine the rate at which analyte binds to the chip. In this experiment, the concentration of free RSPO-1 in solution is determined by the initial rate of binding to a CM5 Biacore chip containing immobilized GPR49-Fc. Into these RSPO-1 solutions were titrated the competing GPR49-Fc.

Row | Molecule | average tumor size [1] [mm^3] | tumor inhibition, Irinotecan alone [2] [%] | binding profile (GPR49-Fc)
1 | CCc1c2c(nc3ccc(OC(=O)N4CCC(N5CCCCC5)CC4)cc13)-c1cc3c(c(=O)n1C2)COC(=O)[C@]3(O)CC [Irinotecan] | 1729 | 45 | –
2 | B1 | – | – | bi-phasic binding profile
